We go through 24 compounds from PubChem BioAssay AID330 (DTP/NCI, 2004).

The experiment deals with P388 leukemia ip, CD2F1 mice, survival T/C. Description: NCI In Vivo Anticancer Drug Screen. Data for tumor model P388 Leukemia (intraperitoneal) in CD2F1 (CDF1) mice. The note with it: endpoint: median survival time, higher = longer survival. The method, boiled down:
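Mice carrying the transplanted tumor received test compound or vehicle. Survival was recorded in each group, and the value is the treated-group measurement divided by that of the vehicle-treated control group.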

[1] abbreviates: dose: 60.0 mg/kg/injection, schedule: Q01DX005 (ip), vehicle: Klucel (hydroxypropylcellulose) (HPC).
[2] abbreviates: dose: 50.0 mg/kg/injection, schedule: Q01DX009 (ip), vehicle: Klucel (hydroxypropylcellulose) (HPC).
The mark [3] stands for this setting: dose: 100.0 mg/kg/injection, schedule: Q01DX009 (ip), vehicle: Klucel (hydroxypropylcellulose) (HPC).
The mark [4] stands for this setting: dose: 50.0 mg/kg/injection, schedule: Q01DX005 (ip), vehicle: saline.
Where [5] appears, read: dose: 100.0 mg/kg/injection, schedule: Q01DX005 (ip), vehicle: saline.
The mark [6] stands for this setting: dose: 200.0 mg/kg/injection, schedule: Q01DX005 (ip), vehicle: saline.
The mark [7] stands for this setting: dose: 12.5 mg/kg/injection, schedule: Q01DX009 (ip), vehicle: saline with Tween-80.
[8] abbreviates: dose: 25.0 mg/kg/injection, schedule: Q01DX009 (ip), vehicle: saline with Tween-80.
Where [9] appears, read: dose: 100.0 mg/kg/injection, schedule: Q01DX009 (ip), vehicle: saline with Tween-80.
Setting [10] is: dose: 200.0 mg/kg/injection, schedule: Q01DX009 (ip), vehicle: saline with Tween-80.
Where [11] appears, read: dose: 100.0 mg/kg/injection, schedule: Q01DX005 (ip), vehicle: Klucel (hydroxypropylcellulose) (HPC).
[12] abbreviates: dose: 3.75 mg/kg/injection, schedule: Q01DX005 (ip), vehicle: saline with Tween-80.
The mark [13] stands for this setting: dose: 7.5 mg/kg/injection, schedule: Q01DX005 (ip), vehicle: saline with Tween-80.
Setting [14] is: dose: 60.0 mg/kg/injection, schedule: Q01DX005 (ip), vehicle: saline with Tween-80.
[15] abbreviates: dose: 50.0 mg/kg/injection, schedule: Q01DX009 (ip), vehicle: saline with Tween-80.
Setting [16] is: dose: 100.0 mg/kg/injection, schedule: Q04DX003 (ip), vehicle: saline with Tween-80.
Where [17] appears, read: dose: 400.0 mg/kg/injection, schedule: Q04DX003 (ip), vehicle: saline with Tween-80.

Several values for one entry are separate records, joined by “and”; a condition that tells them apart may be missing. Equal values may be shown once. Toxic doses and inconclusive results are not listed.

Consider `[N-]=[N+]=CC(=O)CCC(NC(=O)OCc1ccccc1)C(=O)OCc1ccccc1` (centres undefined), for which the T/C was 102 % of control (dose: 0.78 mg/kg/injection, schedule: Q01DX005 (ip), vehicle: Klucel (hydroxypropylcellulose) (HPC)); 110 % of control (dose: 1.56 mg/kg/injection, schedule: Q01DX005 (ip), vehicle: Klucel (hydroxypropylcellulose) (HPC)); 101 % of control (dose: 3.13 mg/kg/injection, schedule: Q01DX005 (ip), vehicle: Klucel (hydroxypropylcellulose) (HPC)); 104 % of control (dose: 6.25 mg/kg/injection, schedule: Q01DX005 (ip), vehicle: Klucel (hydroxypropylcellulose) (HPC)); 99 % of control and 101 % of control and 113 % of control (dose: 12.5 mg/kg/injection, schedule: Q01DX005 (ip), vehicle: Klucel (hydroxypropylcellulose) (HPC)); 110 % of control and 120 % of control (dose: 25.0 mg/kg/injection, schedule: Q01DX005 (ip), vehicle: Klucel (hydroxypropylcellulose) (HPC)). In addition, the T/C (dose: 36.0 mg/kg/injection, schedule: Q01DX005 (ip), vehicle: Klucel (hydroxypropylcellulose) (HPC)) was 107 % of control; the T/C under setting [1] is 120 % of control; the T/C (dose: 278.0 mg/kg/injection, schedule: Q01DX005 (ip), vehicle: Klucel (hydroxypropylcellulose) (HPC)) is 152 % of control.
As for `Cc1cc(=O)n2c(nc3cc(C)c(C)cc32)s1`, the T/C was 103 % of control under setting [2] and 100 % of control under setting [3].
`CN(C)C1C(=O)C(C(=O)NCNC(C=O)C(O)C(O)C(O)CO)=C(O)C2(O)C(=O)C3=C(O)c4c(O)cccc4C(C)(O)C3CC12` (centres undefined): the T/C under setting [4] is 100 % of control, the T/C under setting [5] is 99 % of control and the T/C under setting [6] was 96 % of control.
For the compound `CCCCOP(=O)(O)OCCCC.[V]`, the T/C is 99 % of control (dose: 6.25 mg/kg/injection, schedule: Q01DX009 (ip), vehicle: saline with Tween-80); 96 % of control under setting [7]; 97 % of control under setting [8]; 104 % of control under setting [9]; 103 % of control under setting [10].
For the compound `CCc1nc(N)nc(N)c1-c1ccc(NC)c([N+](=O)[O-])c1`, under setting [11], the T/C is 182 % of control.
Turning to `CCOC(=O)c1ccc(NC(=O)Oc2cc(C)ccc2C)cc1`, the T/C runs as follows: under setting [12], 93 % of control; under setting [13], 90 % of control; (dose: 15.0 mg/kg/injection, schedule: Q01DX005 (ip), vehicle: saline with Tween-80) 90 % of control and 94 % of control; under setting [14], 94 % of control.
Regarding `O=c1sc(N=Nc2ccccc2)nn1-c1ccccc1`, the T/C was 90 % of control (dose: 50.0 mg/kg/injection, schedule: Q04DX003 (ip), vehicle: other); 95 % of control (dose: 100.0 mg/kg/injection, schedule: Q04DX003 (ip), vehicle: other); 95 % of control (dose: 200.0 mg/kg/injection, schedule: Q04DX003 (ip), vehicle: other).
As for `CC(=O)OCC1CN2CC1(c1ccccc1)C(=O)NC2=O` (centres undefined), the T/C (dose: 100.0 mg/kg/injection, schedule: Q01DX001 (ip), vehicle: saline) is 102 % of control; the T/C (dose: 200.0 mg/kg/injection, schedule: Q01DX001 (ip), vehicle: saline) was 102 % of control; the T/C (dose: 400.0 mg/kg/injection, schedule: Q01DX001 (ip), vehicle: saline) was 100 % of control.
For the compound `c1ccc(OCCNCCOc2ccccc2)cc1`, the T/C was 104 % of control under setting [1]; 98 % of control (dose: 120.0 mg/kg/injection, schedule: Q01DX005 (ip), vehicle: Klucel (hydroxypropylcellulose) (HPC)); 103 % of control (dose: 240.0 mg/kg/injection, schedule: Q01DX005 (ip), vehicle: Klucel (hydroxypropylcellulose) (HPC)).
For `O/N=C1\CN2CCC1CC2`, the T/C runs as follows: under setting [4], 110 % of control; under setting [5], 105 % of control.
With `COc1ccccc1[B-]12OCC[N+]1(CNC(=O)C1=C(O)C3(O)C(=O)C4=C(O)c5c(O)cccc5C(C)(O)C4CC3C(N(C)C)C1=O)CCO2` (centres undefined), the T/C is 105 % of control (dose: 50.0 mg/kg/injection, schedule: Q01DX005 (ip), vehicle: Klucel (hydroxypropylcellulose) (HPC)); 108 % of control under setting [11]; 112 % of control (dose: 200.0 mg/kg/injection, schedule: Q01DX005 (ip), vehicle: Klucel (hydroxypropylcellulose) (HPC)).
For the compound `CC1(C)Oc2ccccc2O1`, the T/C by setting is: under setting [7], 96 % of control; under setting [8], 108 % of control; under setting [15], 107 % of control; under setting [9], 113 % of control.
Take `CC1CCCN(C(=O)Nc2ccc([N+](=O)[O-])cc2)C1` (centres undefined): the T/C was 99 % of control under setting [15], 94 % of control under setting [9] and 92 % of control under setting [10].
With `CN(C)C(=[Se])[Se]C(=[Se])N(C)C`, the T/C is, setting by setting: (dose: 3.75 mg/kg/injection, schedule: Q01DX005 (ip), vehicle: Klucel (hydroxypropylcellulose) (HPC)) 99 % of control; (dose: 7.5 mg/kg/injection, schedule: Q01DX005 (ip), vehicle: Klucel (hydroxypropylcellulose) (HPC)) 99 % of control; (dose: 15.0 mg/kg/injection, schedule: Q01DX005 (ip), vehicle: Klucel (hydroxypropylcellulose) (HPC)) 100 % of control.
Consider `C=CCOc1cc2c(cc1Cc1ccc3c(c1)OCO3)OCO2`, for which the T/C reads like this: (dose: 50.0 mg/kg/injection, schedule: Q01DX005 (ip), vehicle: saline with Tween-80) 100 % of control; (dose: 100.0 mg/kg/injection, schedule: Q01DX005 (ip), vehicle: saline with Tween-80) 100 % of control; (dose: 200.0 mg/kg/injection, schedule: Q01DX005 (ip), vehicle: saline with Tween-80) 103 % of control.
With `CCOC(=O)N/N=C/c1ccc[nH]1`, the T/C is 100 % of control (dose: 1.8 mg/kg/injection, schedule: Q01DX005 (ip), vehicle: saline with Tween-80); 100 % of control under setting [12]; 101 % of control and 103 % of control under setting [13].
Turning to `O=C(Nc1cccnc1)c1ccc([N+](=O)[O-])s1`, the T/C is, setting by setting: (dose: 25.0 mg/kg/injection, schedule: Q01DX005 (ip), vehicle: saline) 90 % of control; under setting [4], 87 % of control; under setting [5], 92 % of control; under setting [6], 103 % of control; (dose: 400.0 mg/kg/injection, schedule: Q01DX005 (ip), vehicle: saline) 121 % of control.
Regarding `CC(C)n1cnc2c(=S)nc[nH]c21`, the T/C by setting is: under setting [8], 90 % of control; under setting [15], 100 % of control; under setting [9], 109 % of control.
Consider `CCN(CC)C(=O)N1C=CC(c2ccccc2)C(C(C)=O)=C1` (centres undefined), for which the T/C under setting [14] is 91 % of control; the T/C (dose: 120.0 mg/kg/injection, schedule: Q01DX005 (ip), vehicle: saline with Tween-80) was 103 % of control; the T/C (dose: 240.0 mg/kg/injection, schedule: Q01DX005 (ip), vehicle: saline with Tween-80) was 101 % of control.
As for `NC(=O)Oc1ccccc1`, the T/C is, setting by setting: under setting [16], 100 % of control; (dose: 200.0 mg/kg/injection, schedule: Q04DX003 (ip), vehicle: saline with Tween-80) 104 % of control; under setting [17], 100 % of control.
Consider `Nc1nc(N)c(N=O)c(Nc2ccc(Br)cc2)n1`, for which the T/C was 91 % of control under setting [16] and 95 % of control under setting [17].
For `O[C@@H]1CCC[C@@H]2O[C@H]12`, the T/C is, setting by setting: (dose: 100.0 mg/kg/injection, schedule: Q04DX002 (ip), vehicle: saline) 102 % of control; (dose: 200.0 mg/kg/injection, schedule: Q04DX002 (ip), vehicle: saline) 103 % of control; (dose: 400.0 mg/kg/injection, schedule: Q04DX002 (ip), vehicle: saline) 109 % of control.
Take `O=c1[nH]c(=O)n(C2OC(CO)C(O)C2O)c(=O)[nH]1` (centres undefined): the T/C is 100 % of control (dose: 60.0 mg/kg/injection, schedule: Q01DX005 (ip), vehicle: saline); 95 % of control (dose: 120.0 mg/kg/injection, schedule: Q01DX005 (ip), vehicle: saline); 96 % of control (dose: 240.0 mg/kg/injection, schedule: Q01DX005 (ip), vehicle: saline).
For `O=C1C=C(Nc2ccccc2C(=O)O)C(=O)C=C1Nc1ccccc1C(=O)O`, the T/C runs as follows: under setting [2], 107 % of control; under setting [3], 110 % of control; (dose: 200.0 mg/kg/injection, schedule: Q01DX009 (ip), vehicle: Klucel (hydroxypropylcellulose) (HPC)) 113 % of control.
